# According to ChEMBL document CHEMBL1201862, “PubChem BioAssay data set” (2004):
# Active and inactive are the calls of the source.
# How the values were obtained:
# [1] = biological target: Melanocortin receptor 4 (Homo sapiens, UniProt P32245); test: inhibitors of MC4R cAMP signaling – cell-based, TR-FRET, biased antagonists, dose response (AID 602298); type: functional;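 note: antagonist potency against agonist-stimulated cAMP production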
# [2] = cAMP pathway inhibition in counterscreen cell line – TR-FRET cAMP detection, counter-screen for MC4R biased antagonist project, dose response (AID 602305); type: functional, cell-based;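 note: U2OS cells stimulated with forskolin near its EC80 as the cAMP inducer; potency is for inhibition of forskolin-stimulated cAMP signaling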
# [3] = biological target: 5-hydroxytryptamine receptor 5A (Homo sapiens, UniProt P47898); test: Counterscreen for agonists of OPRM1-OPRD1 heterodimerization: luminescence-based cell-based high throughput dose response assay to identify agonists of 5-hydroxytryptamine (serotonin) 5A receptor (HTR5A). [Related pubchem assays (depositor defined):AID504326, AID504355, AID504692, AID504904, AID504905]; type: functional
# Chain of 5-hydroxytryptamine receptor 5A (P47898 whole entry): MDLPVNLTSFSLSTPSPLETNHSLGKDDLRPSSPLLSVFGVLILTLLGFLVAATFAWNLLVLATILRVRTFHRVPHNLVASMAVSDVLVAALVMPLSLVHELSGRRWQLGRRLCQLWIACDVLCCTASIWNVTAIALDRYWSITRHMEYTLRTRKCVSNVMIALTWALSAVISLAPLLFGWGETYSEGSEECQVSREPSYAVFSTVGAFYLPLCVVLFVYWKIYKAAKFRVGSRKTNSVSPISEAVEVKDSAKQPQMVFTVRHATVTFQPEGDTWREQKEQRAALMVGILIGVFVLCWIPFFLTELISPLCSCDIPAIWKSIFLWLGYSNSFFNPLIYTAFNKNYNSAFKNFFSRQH
# [4] = biological target: Delta-type opioid receptor (Homo sapiens, UniProt P41143); test: Counterscreen for agonists of heterodimerization of the mu 1 (OPRM1) and delta 1 (OPRD1) opioid receptors: Luminescence-based cell-based high throughput dose response assay to identify agonists of OPRD1 homodimerization. [Related pubchem assays (depositor defined):AID504326, AID504355, AID504692, AID504904, AID504905]; type: functional
# Chain of Delta-type opioid receptor (P41143 whole entry): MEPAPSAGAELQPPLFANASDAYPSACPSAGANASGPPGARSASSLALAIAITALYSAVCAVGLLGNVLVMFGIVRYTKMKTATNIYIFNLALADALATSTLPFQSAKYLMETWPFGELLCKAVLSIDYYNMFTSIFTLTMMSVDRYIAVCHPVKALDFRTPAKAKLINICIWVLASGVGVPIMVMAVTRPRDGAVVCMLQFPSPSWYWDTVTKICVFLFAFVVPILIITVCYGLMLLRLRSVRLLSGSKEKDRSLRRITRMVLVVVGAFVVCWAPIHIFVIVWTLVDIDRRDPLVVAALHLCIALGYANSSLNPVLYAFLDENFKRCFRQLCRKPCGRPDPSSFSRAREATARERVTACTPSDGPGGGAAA
# [5] = biological target: Mu-type opioid receptor (Homo sapiens, UniProt P35372); test: Counterscreen for agonists of heterodimerization of the mu 1 (OPRM1) and delta 1 (OPRD1) opioid receptors: Luminescence-based cell-based high throughput dose response assay to identify agonists of OPRM1 homodimerization.; type: functional;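 note: U2OS cells expressing OPRM1 and beta-arrestin as split beta-galactosidase partners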
# Chain of Mu-type opioid receptor (P35372 whole entry): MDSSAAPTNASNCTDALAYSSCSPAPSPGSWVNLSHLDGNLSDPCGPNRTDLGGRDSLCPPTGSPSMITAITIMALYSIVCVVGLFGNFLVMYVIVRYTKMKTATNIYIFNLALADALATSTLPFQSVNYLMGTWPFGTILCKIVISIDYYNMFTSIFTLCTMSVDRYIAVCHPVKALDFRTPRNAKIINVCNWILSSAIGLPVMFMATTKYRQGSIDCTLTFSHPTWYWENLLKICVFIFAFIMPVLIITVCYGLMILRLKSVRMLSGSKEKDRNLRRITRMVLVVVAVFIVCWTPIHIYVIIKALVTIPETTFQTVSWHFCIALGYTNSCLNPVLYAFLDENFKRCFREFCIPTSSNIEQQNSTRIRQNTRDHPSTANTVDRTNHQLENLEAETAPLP
# [6] = system: BJ; test: cells; type: functional, cell-based; conditions: Homo sapiens
# [7] = DRD fibroblast viability loss – cell-based, non-viral oncogenic, luminescence, dose response (AID 1934); type: functional; conditions: Homo sapiens
# [8] = system: BJ; test: BJ-TERT-LT-ST fibroblast viability loss – cell-based, RAS-independent, luminescence, dose response (AID 1935); type: functional; conditions: Homo sapiens;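 note: BJ fibroblasts immortalized with TERT plus LT and ST oncogenes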
# [9] = system: BJ; test: BJ-TERT fibroblast viability loss – cell-based, RAS-independent, luminescence, dose response (AID 1933); type: functional; conditions: Homo sapiens
# [10] = system: HEK293; test: EBV LMP1 TES2 canonical NF-kB signalling blockers – cell-based, HEK293, luciferase, cherry-pick, dose response (AID 588343); type: functional; conditions: Homo sapiens
# [11] = biological target: T1, Latent membrane protein 1 (Human herpesvirus 4 (strain B95-8), UniProt P03230); test: LMP1 TES1 pathway selectivity over dsRED control – imaging, HEK293T, dual-color eGFP/dsRED, cherry-picks, selectivity assay for LMP1 NF-kB inhibitor project, dose response (AID 588398); type: functional, cell-based
# T1 sequence (P03230 whole entry): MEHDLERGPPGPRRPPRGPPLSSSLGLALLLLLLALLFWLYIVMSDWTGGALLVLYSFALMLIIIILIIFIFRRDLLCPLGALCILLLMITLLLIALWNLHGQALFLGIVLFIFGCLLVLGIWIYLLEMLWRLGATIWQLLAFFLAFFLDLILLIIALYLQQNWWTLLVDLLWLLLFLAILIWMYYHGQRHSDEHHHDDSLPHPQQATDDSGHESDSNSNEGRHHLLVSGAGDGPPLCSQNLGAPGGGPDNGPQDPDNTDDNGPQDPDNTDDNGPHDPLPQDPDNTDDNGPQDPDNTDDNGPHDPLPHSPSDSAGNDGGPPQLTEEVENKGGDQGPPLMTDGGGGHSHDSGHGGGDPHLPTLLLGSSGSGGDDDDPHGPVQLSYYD
# [12] = system: INS1; test: INS-1E survival protection against cytokine death – cell-based, luminescence, retest, dose response (AID 449756); type: functional; conditions: Rattus norvegicus;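 note: cell death triggered by IL-1 beta plus TNF-alpha plus IFN-gamma mixture; protective hits raise ATP signal compared with cytokine alone wells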
# [13] = non-specific 3'UTR reporter inhibition in Clone20-Shn3RL – cell-based, Renilla luciferase, cherry-picked, counter-screen for Shn3 inhibitor project, dose response (AID 624133); type: functional
# [14] = loss of viability in HepG2 cells – cell-based, CellTiter-Glo, cherry-picked, cytotoxicity control for Shn3 inhibitor project, dose response (AID 624134); type: functional
# [15] = system: Vero; test: cells; type: functional, cell-based; conditions: Chlorocebus sabaeus
# [16] = biological target: T2, Interleukin-8 (Homo sapiens, UniProt P10145); test: Dose Response confirmation of uHTS small molecule hits for cystic fibrosis induced NFkb Inhibitors in a PAF-induced IL8 counterscreen.; type: functional; conditions: read-out: IC50_Mean
# T2 sequence (P10145 whole entry): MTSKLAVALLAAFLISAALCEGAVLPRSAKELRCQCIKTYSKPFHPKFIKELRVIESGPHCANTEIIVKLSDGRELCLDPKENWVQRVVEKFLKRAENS
# [17] = system: Vero; test: cells; type: functional; conditions: Chlorocebus sabaeus
# [18] = system: H4; test: Luminescence Cell-Based Dose Response HTS to Identify Activators of 5'UTR Stem-Loop Driven Prion Protein mRNA Translation in H4 Neuroglioblastoma Cells. [Related pubchem assays: 1829 (Project Summary), 1814 (Primary HTS)]; type: functional; conditions: Homo sapiens
# [19] = reduction of Shn3 3'UTR-driven luciferase in osteoblasts – cell-based, Clone20 osteoblasts, firefly luciferase, cherry-picked, dose response (AID 624132); type: functional;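 note: firefly luciferase luminescence from reporter carrying the Shn3 3'UTR in osteoblasts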
# [20] = Luminescence Cell-Based Dose Response HTS to Identify Activators of Luciferase Translation or Activity in H4 […] Cells. [Related pubchem assays: 1829 (Project Summary), 1814 (Primary HTS)]; type: functional
# [21] = biological target: T2, Interleukin-8; test: Dose Response confirmation of uHTS small molecule hits for cystic fibrosis induced NFkb Inhibitors in a TNFa-induced IL8 counterscreen.; type: functional; conditions: read-out: IC50_Mean
# [22] = Luminescence Cell-Based Dose Confirmation HTS to Identify Activators of 5'UTR Stem-Loop Driven Alpha-Synuclein mRNA Translation in H4 Neuroglioblastoma Cells. [Related pubchem assays: 1829 (Project Summary), 1814 (Primary HTS)]; type: functional
# Chain of Melanocortin receptor 4 (P32245 whole entry): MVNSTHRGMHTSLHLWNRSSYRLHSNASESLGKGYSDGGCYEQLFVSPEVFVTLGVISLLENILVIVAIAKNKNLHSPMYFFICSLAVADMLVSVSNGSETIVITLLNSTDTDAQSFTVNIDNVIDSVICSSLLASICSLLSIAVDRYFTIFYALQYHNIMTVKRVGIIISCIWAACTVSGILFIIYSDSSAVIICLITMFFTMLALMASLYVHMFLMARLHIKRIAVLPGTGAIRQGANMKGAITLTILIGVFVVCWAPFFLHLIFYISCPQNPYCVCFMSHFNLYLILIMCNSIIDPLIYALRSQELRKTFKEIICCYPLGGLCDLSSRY
structure (smiles),measurement,setting,value
CCN(CC)S(=O)(=O)c1ccc(N2CCOCC2)c(NC(=O)c2ccccc2F)c1,IC50,[1],> 64.6 µM (inactive)
same,IC50,[2],> 64.6 µM (inactive)
CN(C)CCCN(C(=O)c1ccc(S(=O)(=O)N(C)Cc2ccccc2)cc1)c1nc2c(F)cccc2s1,EC50,[3],> 92.5 µM (inactive)
same,EC50,[4],> 30.8 µM (inactive)
same,EC50,[5],26.2 µM (inactive)
CCOC(=O)c1c(NC(=O)C2c3ccccc3Oc3ccccc32)sc(C(N)=O)c1C,IC50,[1],> 21.5 µM (inactive)
same,IC50,[2],32.5 µM (inactive)
CCc1ccc2nc(N(CCCN(C)C)C(=O)c3ccc(S(=O)(=O)N(C)C4CCCCC4)cc3)sc2c1,EC50,[3],> 92.5 µM (inactive)
same,EC50,[6],13.4 µM (active)
same,EC50,[7],7.91 µM (active)
same,EC50,[4],> 92.5 µM (inactive)
same,EC50,[8],7.58 µM (active)
same,EC50,[9],6.21 µM (inconclusive)
same,EC50,[5],> 92.5 µM (inactive)
CSCCC(/C(O)=C(\C#N)c1nc2ccccc2[nH]1)N1C(=O)c2ccccc2C1=O (stereo not given),EC50,[3],> 92.4 µM (inactive)
same,EC50,[4],> 92.4 µM (inactive)
same,EC50,[5],> 92.4 µM (inactive)
O=C1NC(c2cccc(OCc3ccccc3)c2)Nc2ccccc21 (stereo not given),AC50,[10],84 µM (active)
same,AC50,[11],2.82 µM (active)
C=CCSc1nc2ccccc2n1C(=O)/C=C/c1ccc(OC)c(OC)c1,AC50,[12],8.85 µM (active)
same,AC50,[13],12.5 µM (active)
same,AC50,[14],49.4 µM (active)
same,IC50,[15],> 25 µM (active)
same,IC50,[16],0.685 µM (active)
same,CC50,[17],9.91 µM (active)
same,EC50,[18],> 120 µM (not active)
same,AC50,[19],1.31 µM (active)
same,EC50,[20],> 120 µM (not active)
same,IC50,[21],> 79 µM (inactive)
same,EC50,[22],> 120 µM (not active)
